In ChEMBL document CHEMBL1129897 (Bioorg Med Chem Lett, 1997):

target: 5-hydroxytryptamine receptor 2A (Rattus norvegicus, UniProt P14842); experiment: Tested in vitro for its ability to inhibit [3H]ketanserin binding to 5-hydroxytryptamine 2A receptor in rat frontal cortex membranes; assay type: cell membranes, Membrane
Sequence (P14842 whole entry): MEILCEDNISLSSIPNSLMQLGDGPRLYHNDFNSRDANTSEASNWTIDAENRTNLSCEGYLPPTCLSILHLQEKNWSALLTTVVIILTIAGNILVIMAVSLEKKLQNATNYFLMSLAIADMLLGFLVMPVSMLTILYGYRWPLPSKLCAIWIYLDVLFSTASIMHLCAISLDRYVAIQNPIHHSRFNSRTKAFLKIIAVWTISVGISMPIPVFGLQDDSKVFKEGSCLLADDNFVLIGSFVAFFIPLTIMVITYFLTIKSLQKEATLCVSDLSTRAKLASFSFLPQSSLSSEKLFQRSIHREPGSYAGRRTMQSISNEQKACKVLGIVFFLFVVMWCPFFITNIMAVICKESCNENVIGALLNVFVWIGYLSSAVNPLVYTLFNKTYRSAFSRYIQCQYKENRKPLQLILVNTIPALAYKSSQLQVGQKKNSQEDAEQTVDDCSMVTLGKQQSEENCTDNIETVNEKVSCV

Structure (SMILES) | Ki [nM]
CCc1c(C)[nH]c2c1C(=O)CC(CN1CCC(C(=O)c3ccc(F)cc3)CC1)C2 (centres undefined) | 6.17
CCc1c(C)[nH]c2c1C(=O)CC(CN1CCN(c3ccccc3OC)CC1)C2 (centres undefined) | 282
CCc1c(C)[nH]c2c1C(=O)CC(CN1CCC(c3noc4cc(F)ccc34)CC1)C2 (centres undefined) | 5.01
CCc1c(C)[nH]c2c1C(=O)CC(CN1CCN(CCCC(=O)c3ccc(F)cc3)CC1)C2 (centres undefined) | 398
